In experiment [1] the test system is Aβ40 in conditioned medium of cells stably expressing Amyloid Precursor Protein (APP). As to the kind of experiment: In vitro BACE-1 cell-based assay (Aβ40 sandwich ELISA). The following applies: BACE1 cell-based assay; read-out: IC50 IP (μM) BACE1 cell. In a few lines:
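APP-expressing cells treated 24 h at 37 °C with compound in 10-point dose response (top 100 μM or 10 μM, 0.1% DMSO final). Secreted Aβ40 in conditioned medium quantified by sandwich ELISA (pAb40 capture, biotinylated 6E10 detection, time-resolved europium fluorescence); IC50 from percent inhibition versus concentration.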

The next experiment concerns the target human recombinant BACE2 (Homo sapiens (Human), UniProt Q9Y5Z0). Nature of the experiment: In vitro enzymatic BACE2 FRET assay. Format: biochemical. The following applies: BACE2 FRET enzyme assay; read-out: IC50 IP (μM) BACE2 enzyme. In a few lines:
(§1)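 Protease purified by Ni-NTA chromatography; start with FRET substrate (50 nM); incubate 1 h; quench with Tris to neutral pH; read fluorescence ex 488 / em 590 nm.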

The test system of the next experiment is Aβ 40 in rat brain. As to the kind of experiment: In vivo inhibition of beta-secretase: Aβ40 reduction in rat brain. The following applies: after 4 h. The text has this:
(§2) In Vivo Inhibition of Beta-Secretase
Several animal models, including mouse, rat, dog, and monkey, may be used to screen for inhibition of beta-secretase activity in vivo following administration of a test compound sample. Animals used in this invention can be wild type, transgenic, or gene knockout animals. […] One to twenty-four hours following the administration of compound, animals are sacrificed, and brains as well as cerebrospinal fluid (CSF) and plasma are removed for analysis of A-beta levels and drug or test compound concentrations (Dovey et al., 2001, Journal of Neurochemistry, 76,173-181) Beginning at time 0, animals are administered by oral gavage, or other means of delivery such as intravenous injection, an inhibitory test compound of up to 100 mg/kg in a standard, conventional formulation, such as 2% hydroxypropyl methylcellulose, 1% Tween80. A separate group of animals receive 2% hydroxypropyl methylcellulose, 1% Tween80 alone, containing no test compound, and serve as a vehicle-control group. At the end of the test period, animals are sacrificed and brain tissues, plasma or cerebrospinal fluid are collected. […] Homogenates are centrifuged at 355,000 g, 4° C. for 30 minutes. CSF or brain supernatants are then analyzed for the presence of A-beta peptide by specific sandwich ELISA assays based on ECL (Electrochemiluminescence) technology. For example, rat Abeta40 is measured using biotinylated-4G8 (Signet) as a capture antibody and Fab40 (an in-house antibody specific to the C-terminal of Abeta40) as a detection antibody.
(§3) Actual vehicles used: Oral: 2% HPMC, 1% Tween80, pH 2.2

The next experiment deals with Recombinant Cat D (Homo sapiens (Human), UniProt P07339). As to the kind of experiment: In vitro enzymatic Cathepsin D (Cat D) FRET assay. The experiment is classed as biochemical. As to conditions: Cathepsin D FRET enzyme assay; read-out: IC50 IP (μM) CatD. In a few lines:
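Cleavage of a 20 nM fluorophore/quencher peptide by CHO-expressed recombinant Cat D proceeded for one hour at pH 3.5 (0.05 M citrate, 5 mM CHAPS, 10% DMSO final). Tris addition neutralized the pH to end the reaction. Fluorescence was then measured (ex 500 nm/em 580 nm).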

The target in the next experiment is human recombinant BACE1 (Homo sapiens (Human), UniProt P56817). As to the kind of experiment: In vitro enzymatic BACE1 FRET assay. Format: biochemical. The following applies: BACE1 FRET enzyme assay; read-out: IC50 IP (μM) BACE1 enzyme. Summed up:
as §1

A further experiment relates to Aβ 40 in rat CSF. As to the kind of experiment: In vivo inhibition of beta-secretase: Aβ40 reduction in rat CSF. The following applies: after 4 h.
Text: as §2
Several animal models, including mouse, rat, dog, and monkey, may be used to screen for inhibition of beta-secretase activity in vivo following administration of a test compound sample. Animals used in this invention can be wild type, transgenic, or gene knockout animals. For example, the Tg2576 mouse model, prepared and conducted as described in Hsiao et al., 1996, Science 274, 99-102, and other non-transgenic or gene knockout animals are useful to analyze in vivo inhibition of Amyloid beta peptide (Abeta) production in the presence of inhibitory test compounds. Generally, 2 to 18 month old Tg2576 mice, gene knockout mice or non-transgenic animals are administered test compounds formulated in vehicles, such as cyclodextran, phosphate buffers, hydroxypropyl methylcellulose or other suitable vehicles. One to twenty-four hours following the administration of compound, animals are sacrificed, and brains as well as cerebrospinal fluid (CSF) and plasma are removed for analysis of A-beta levels and drug or test compound concentrations (Dovey et al., 2001, Journal of Neurochemistry, 76,173-181) Beginning at time 0, animals are administered by oral gavage, or other means of delivery such as intravenous injection, an inhibitory test compound of up to 100 mg/kg in a standard, conventional formulation, such as 2% hydroxypropyl methylcellulose, 1% Tween80. A separate group of animals receive 2% hydroxypropyl methylcellulose, 1% Tween80 alone, containing no test compound, and serve as a vehicle-control group. At the end of the test period, animals are sacrificed and brain tissues, plasma or cerebrospinal fluid are collected. […] Homogenates are centrifuged at 355,000 g, 4° C. for 30 minutes. CSF or brain supernatants are then analyzed for the presence of A-beta peptide by specific sandwich ELISA assays based on ECL (Electrochemiluminescence) technology. For example, rat Abeta40 is measured using biotinylated-4G8 (Signet) as a capture antibody and Fab40 (an in-house antibody specific to the C-terminal of Abeta40) as a detection antibody. For example, 4 hours after administration of 30 mg/kg oral dose of the test compound in 2% hydroxypropyl methylcellulose, 1% Tween80 (pH2.2) to 200 g male Sprague Dawley rats, amyloid beta peptide levels are measured for reduction by X % and Y % in cerebrospinal fluid and brain, respectively, when compared to the levels measured in the vehicle-treated or control mice.
as §3
The compounds of the invention may be shown to reduce the formation and/or deposition of amyloid beta peptide in the cerebrospinal fluid (CSF) as well as in the brain of a mouse or rat at either 3 mpk, 10 mpk or 30 mpk (mpk=mg compound per kg weight of the animal) dosing concentrations after 4 h.

Sequence of human recombinant BACE2 (Q9Y5Z0 63-518): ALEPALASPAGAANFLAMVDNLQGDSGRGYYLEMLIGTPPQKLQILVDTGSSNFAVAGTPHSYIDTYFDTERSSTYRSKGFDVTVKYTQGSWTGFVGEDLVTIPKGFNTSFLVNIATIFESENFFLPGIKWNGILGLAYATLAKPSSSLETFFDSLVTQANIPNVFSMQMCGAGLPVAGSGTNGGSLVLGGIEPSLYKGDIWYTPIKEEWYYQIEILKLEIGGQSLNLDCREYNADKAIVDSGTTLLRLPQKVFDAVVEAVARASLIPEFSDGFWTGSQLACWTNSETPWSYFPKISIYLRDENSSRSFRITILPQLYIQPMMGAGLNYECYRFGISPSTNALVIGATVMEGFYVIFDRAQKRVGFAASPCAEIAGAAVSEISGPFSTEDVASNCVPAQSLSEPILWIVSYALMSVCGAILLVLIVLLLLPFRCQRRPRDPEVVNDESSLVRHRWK
Sequence of human recombinant BACE1 (P56817 46-501): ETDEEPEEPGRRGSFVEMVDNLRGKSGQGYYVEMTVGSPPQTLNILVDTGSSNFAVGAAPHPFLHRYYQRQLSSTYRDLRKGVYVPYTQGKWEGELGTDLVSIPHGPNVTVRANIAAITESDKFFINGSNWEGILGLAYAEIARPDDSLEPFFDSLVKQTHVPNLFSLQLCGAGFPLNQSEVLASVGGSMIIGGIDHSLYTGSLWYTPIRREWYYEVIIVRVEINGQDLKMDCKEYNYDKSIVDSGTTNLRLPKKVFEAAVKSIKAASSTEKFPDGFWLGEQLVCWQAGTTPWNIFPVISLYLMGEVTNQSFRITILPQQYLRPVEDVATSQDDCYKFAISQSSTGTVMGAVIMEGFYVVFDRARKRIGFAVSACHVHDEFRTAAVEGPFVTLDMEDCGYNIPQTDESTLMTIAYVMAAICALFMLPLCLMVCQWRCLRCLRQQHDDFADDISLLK
Sequence of Recombinant Cat D (P07339 65-412): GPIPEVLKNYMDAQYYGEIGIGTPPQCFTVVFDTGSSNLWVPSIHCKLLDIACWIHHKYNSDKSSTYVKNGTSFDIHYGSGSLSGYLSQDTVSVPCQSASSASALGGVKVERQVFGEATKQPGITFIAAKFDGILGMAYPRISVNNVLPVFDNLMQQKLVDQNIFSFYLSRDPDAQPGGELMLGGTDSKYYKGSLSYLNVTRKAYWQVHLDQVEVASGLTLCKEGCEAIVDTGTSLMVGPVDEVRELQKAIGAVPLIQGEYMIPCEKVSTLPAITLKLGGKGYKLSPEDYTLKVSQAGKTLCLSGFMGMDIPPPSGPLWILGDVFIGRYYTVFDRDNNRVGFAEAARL

By IC50 is commonly meant the point on the concentration scale where inhibition reaches its midpoint. As for `C#CCOc1cnc(C(=O)Nc2cc(F)c(F)c([C@@]3(CF)N=C(N)S[C@H]4C[C@H]43)c2)cn1` [Example 20, N-(3-((1S,5S,6S)-3-amino-5-(fluoromethyl)-2-thia-4-azabicyclo[4.1.0]hept-3-en-5-yl)-4,5-difluorophenyl)-5-(2-propyn-1-yloxy)-2-pyrazinecarboxamide], the IC50 in experiment [1] was 0.00064 µM; on human recombinant BACE2, 0.0394 µM; at Recombinant Cat D it was 47.1 µM; on human recombinant BACE1, 0.0006 µM. In addition, the “% Aβ 40 reduction in rat brain at 10 mpk” value with Aβ 40 in rat brain turned out to be 76%. In addition, the “% Aβ 40 reduction in rat CSF at 10 mpk” value in the experiment with Aβ 40 in rat CSF is recorded as 80%.

Regarding `C[C@]1(c2cc(Nc3nccc4cc(C#N)cnc34)cc(F)c2F)N=C(N)S[C@H]2C[C@H]21` [Example 21, 8-((3-((1S,5S,6S)-3-amino-5-methyl-2-thia-4-azabicyclo[4.1.0]hept-3-en-5-yl)-4,5-difluorophenyl)amino)-1,7-naphthyridine-3-carbonitrile], the IC50 was 0.0164 µM in experiment [1], 0.00534 µM at human recombinant BACE2, more than 133 µM at Recombinant Cat D and 0.0145 µM on human recombinant BACE1. Also, the “% Aβ 40 reduction in rat brain at 10 mpk” value in the experiment on Aβ 40 in rat brain was 40%. Moreover, in the experiment on Aβ 40 in rat CSF, the “% Aβ 40 reduction in rat CSF at 10 mpk” value came out at 61%.

Regarding `C#CCOc1cnc(C(=O)Nc2cc(F)c(F)c([C@@]3(C)N=C(N)S[C@H]4C[C@H]43)c2)cn1` [Example 23, N-(3-((1S,5S,6S)-3-amino-5-methyl-2-thia-4-azabicyclo[4.1.0]hept-3-en-5-yl)-4,5-difluorophenyl)-5-(2-propyn-1-yloxy)-2-pyrazinecarboxamide], the IC50 in experiment [1] worked out at 0.00062 µM; on human recombinant BACE2 it was 0.0374 µM; on Recombinant Cat D it was 81.9 µM; on human recombinant BACE1, 0.00047 µM. Further, in the experiment on Aβ 40 in rat brain, the “% Aβ 40 reduction in rat brain (3 mpk)” value is 61 (3 mpk) %. Moreover, the “% Aβ 40 reduction in rat CSF (3 mpk)” value in the experiment with Aβ 40 in rat CSF was 70 (3 mpk) %.

With `COC[C@]12C[C@H]1[C@@](C)(c1cc(Nc3nccc4cc(C#N)cnc34)cc(F)c1F)N=C(N)S2` [Example 33, 8-((3-((1S,5S,6S)-3-amino-1-(methoxymethyl)-5-methyl-2-thia-4-azabicyclo[4.1.0]hept-3-en-5-yl)-4,5-difluorophenyl)amino)-1,7-naphthyridine-3-carbonitrile], the IC50 in experiment [1] is 0.00383 µM; at human recombinant BACE2 it was 0.00169 µM; on Recombinant Cat D, more than 400 µM; on human recombinant BACE1, 0.00203 µM. For the same compound, the “% Aβ 40 reduction in rat brain at 10 mpk” value in the experiment on Aβ 40 in rat brain was found to be 53%. In addition, the “% Aβ 40 reduction in rat CSF at 10 mpk” value in the experiment on Aβ 40 in rat CSF is 65%.

Consider `COC[C@]12C[C@H]1[C@@](C)(c1cc(Nc3ncnc4cc(Cl)cnc34)cc(F)c1F)N=C(N)S2` [Example 35, N-(3-((1S,5S,6S)-3-amino-1-(methoxymethyl)-5-methyl-2-thia-4-azabicyclo[4.1.0]hept-3-en-5-yl)-4,5-difluorophenyl)-7-chloropyrido[3,2-d]pyrimidin-4-amine], for which the IC50 in experiment [1] was found to be 0.00288 µM; at human recombinant BACE2 it was 0.00363 µM; on Recombinant Cat D, 213 µM; on human recombinant BACE1, 0.00386 µM. In addition, the “% Aβ 40 reduction in rat brain at 10 mpk” value in the experiment on Aβ 40 in rat brain amounted to 50%. In the experiment with Aβ 40 in rat CSF, the “% Aβ 40 reduction in rat CSF at 10 mpk” value amounted to 63%.

With `NC1=N[C@](CF)(c2cc(Nc3nccc4cc(Cl)cnc34)ccc2F)[C@@H]2C[C@]2(CO)S1` [Example 45, ((1S,5S,6S)-3-amino-5-(5-((3-chloro-1,7-naphthyridin-8-yl)amino)-2-fluorophenyl)-5-(fluoromethyl)-2-thia-4-azabicyclo[4.1.0]hept-3-en-1-yl)methanol], the IC50 in experiment [1] was 0.00427 µM; on human recombinant BACE2 it was less than 0.00203 µM; at Recombinant Cat D it was more than 400 µM; at human recombinant BACE1, 0.00299 µM. Besides, the “% Aβ 40 reduction in rat brain at 10 mpk” value in the experiment on Aβ 40 in rat brain is given as 0%. In the experiment with Aβ 40 in rat CSF, the “% Aβ 40 reduction in rat CSF at 10 mpk” value is listed as 17%.

As for `COC[C@]12C[C@H]1[C@@](C)(c1cc(Nc3ncnc4cc(C#N)cnc34)cc(F)c1F)N=C(N)S2` [Example 46, 4-((3-((1S,5S,6S)-3-amino-1-(methoxymethyl)-5-methyl-2-thia-4-azabicyclo[4.1.0]hept-3-en-5-yl)-4,5-difluorophenyl)amino)pyrido[3,2-d]pyrimidine-7-carbonitrile], the IC50 was 0.00352 µM in experiment [1], 0.0301 µM on human recombinant BACE2, 252 µM at Recombinant Cat D and 0.00631 µM at human recombinant BACE1. Also, in the experiment with Aβ 40 in rat brain, the “% Aβ 40 reduction in rat brain at 10 mpk” value was 67%. Moreover, the “% Aβ 40 reduction in rat CSF at 10 mpk” value in the experiment with Aβ 40 in rat CSF came to 73%.

`NC1=N[C@](CF)(c2cc(Nc3ncnc4cc(Cl)cnc34)ccc2F)[C@@H]2C[C@]2(CO)S1` [Example 49, ((1S,5S,6S)-3-amino-5-(5-((7-chloropyrido[3,2-d]pyrimidin-4-yl)amino)-2-fluorophenyl)-5-(fluoromethyl)-2-thia-4-azabicyclo[4.1.0]hept-3-en-1-yl)methanol]: the IC50 turned out to be 0.0084 µM in experiment [1], 0.00749 µM on human recombinant BACE2, 1760 µM on Recombinant Cat D and 0.00631 µM on human recombinant BACE1. Also, the “% Aβ 40 reduction in rat brain at 10 mpk” value in the experiment on Aβ 40 in rat brain turned out to be 14%. Also, the “% Aβ 40 reduction in rat CSF at 10 mpk” value with Aβ 40 in rat CSF is 24%.

For the compound `N#Cc1cnc2c(Nc3ccc(F)c([C@@]4(CF)N=C(N)S[C@H]5C[C@H]54)c3)ncnc2c1` [Example 51, 4-((3-((1S,5S,6S)-3-amino-5-(fluoromethyl)-2-thia-4-azabicyclo[4.1.0]hept-3-en-5-yl)-4-fluorophenyl)amino)pyrido[3,2-d]pyrimidine-7-carbonitrile], the IC50 amounted to 0.00344 µM in experiment [1], 0.0983 µM on human recombinant BACE2, 1350 µM on Recombinant Cat D and 0.033 µM on human recombinant BACE1. Besides, in the experiment on Aβ 40 in rat brain, the “% Aβ 40 reduction in rat brain (3 mpk)” value is on record as 17 (3 mpk) %. Further, the “% Aβ 40 reduction in rat CSF (3 mpk)” value in the experiment on Aβ 40 in rat CSF is given as 23 (3 mpk) %.

Take `C#CCOc1cnc2c(Nc3ccc(F)c([C@@]4(CF)N=C(N)S[C@@]5(CO)C[C@H]54)c3)nccc2c1` [Example 52, ((1S,5S,6S)-3-amino-5-(fluoromethyl)-5-(2-fluoro-5-((3-(2-propyn-1-yloxy)-1,7-naphthyridin-8-yl)amino)phenyl)-2-thia-4-azabicyclo[4.1.0]hept-3-en-1-yl)methanol]: the IC50 was 0.00455 µM in experiment [1], 0.23 µM on human recombinant BACE2, more than 400 µM on Recombinant Cat D and 0.0105 µM at human recombinant BACE1. Further, the “% Aβ 40 reduction in rat brain at 10 mpk” value with Aβ 40 in rat brain came out at 0%. The “% Aβ 40 reduction in rat CSF at 10 mpk” value in the experiment on Aβ 40 in rat CSF is listed as 16%.

For the origin of these results see US20160046618A1, “Cyclopropyl Fused Thiazin-2-Amine Compounds as Beta-Secretase Inhibitors and Methods of Use” (AMGEN INC., priority 2014, published 2016).
